Source: patent US20240067632A1, “WEE1 Degrading Compounds and Uses Thereof” (Bristol-Myers Squibb Company, priority 2022, published 2024)
Like-named read-outs stand apart in the source and are kept apart here.

Legend:
WEE1 = biological target: T1, WEE1 (Homo sapiens, UniProt P30291+Q96SW2); test: WEE1-ePL degradation assay (LentiX-WEE1-ePL-GSPT1-ND cells, InCELL Hunter luminescence, 4 h); assay type: cell-based; conditions: 293T-LentiX WEE1-ePL cells; for 293T-LentiX WEE1-ePL Degradation 4 hr (Ymin): lower limit of the fit (0 = luciferase inhibitor, Ymax = DMSO control); for DC50: read-out: 293T-LentiX WEE1-ePL Degradation 4 hr (EC50)
T1 construct: C-terminal ePL-tagged (DiscoverX, Fremont, CA) full-length WEE1 expression construct; expressed in transfected cells; host or cells: LentiX-HEK293T (Invitrogen), lentiviral transduction; co-expressing GSPT1-GN (G576N, lacking the first 158 amino acids)
How it was run: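 HEK293T cells stably expressing C-terminal ePL-tagged full-length WEE1, 2500 cells/well, treated 4 h at 37° C with a 10-point 3-fold series from 1 or 10 uM. Remaining WEE1-ePL read by InCELL Hunter luminescence after 30 min. EC50 came from a four-parameter logistic fit, with Ymax set from DMSO control.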

MKN45 cells = test: MKN45 cell proliferation assay (Cell-Titer-Glo, 120 h); assay type: cell-based; conditions: for EC50: Cell-Titer-Glo, growth inhibition, read-out: MKN45 Cell Prolif. 120 hr (EC50); for MKN45 Cell Prolif. 120 hr (Ymin-Obs): minimal percent of DMSO control observed in the concentrations tested
How it was run: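 Growth inhibition was read as blank-corrected Cell-Titer-Glo luminescence expressed as percent DMSO control after 120 h at 37 C, 400 cells/well. Compounds tested in triplicate as 10-point half-log series from 1 or 10 uM, 0.1% DMSO; four-parameter fit gave EC50, and lowest observed percent control was reported as Ymin-obs.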

| SMILES | 293T-LentiX WEE1-ePL Degradation 4 hr (Ymin) (WEE1) | DC50 (WEE1) [nM] | EC50 (MKN45 cells; Homo sapiens, MKN-45, 120 h) [nM] | MKN45 Cell Prolif. 120 hr (Ymin-Obs) (MKN45 cells) | EC50 (MKN45 cells) [nM] |
| --- | --- | --- | --- | --- | --- |
| O=C1CCC(N2Cc3cc(O[C@H]4CCN(Cc5ccc6nc(NC(=O)C7CCOCC7)ccc6c5)C4)ccc3C2=O)C(=O)N1 (stereo partly drawn) [N-(6-{[(3S)-3-{[2-(2,6-dioxopiperidin-3-yl)-1-oxo-2,3-dihydro-1H-isoindol-5-yl]oxy}pyrrolidin-1-yl]methyl}quinolin-2-yl)oxane-4-carboxamide] | 29 | 1.78 | 2.03 | 5.73 | – |
| CO[C@H]1C[C@@H](c2ccc3cc(CN4CC[C@H](Oc5ccc6c(c5)CN(C5CCC(=O)NC5=O)C6=O)C4)ccc3n2)C1 (stereo partly drawn) [drawing 577, 3-(1-oxo-5-{[(3S)-1-({2-[(1s,3s)-3-methoxycyclobutyl]quinolin-6-yl}methyl)pyrrolidin-3-yl]oxy}-2,3-dihydro-1H-isoindol-2-yl)piperidine-2,6-dione] | 28.27 | 2.09 | 2.67 | 7.76 | – |
| CO[C@H]1C[C@H](c2ccc3cc(CN4CC[C@H](Oc5ccc6c(c5)CN(C5CCC(=O)NC5=O)C6=O)C4)ccc3n2)C1 (stereo partly drawn) [drawing 578, 3-(1-oxo-5-{[(3S)-1-({2-[(1r,3r)-3-methoxycyclobutyl]quinolin-6-yl}methyl)pyrrolidin-3-yl]oxy}-2,3-dihydro-1H-isoindol-2-yl)piperidine-2,6-dione] | 27.12 | 3.61 | 3.3 | 7.412 | – |
| CO[C@H]1C[C@H](c2ccc3cc(CN4CC[C@H](Oc5ccc6c(c5)CN(C5CCC(=O)NC5=O)C6=O)C4)ccc3n2)C1 (stereo partly drawn) [drawing 579, 3-(1-oxo-5-{[(3S)-1-({2-[(1r,3r)-3-methoxycyclobutyl]quinolin-6-yl}methyl)pyrrolidin-3-yl]oxy}-2,3-dihydro-1H-isoindol-2-yl)piperidine-2,6-dione] | 21.76 | 12.8 | – | 8.615 | 4.89 |
| CO[C@H]1C[C@@H](c2ccc3cc(CN4CC[C@H](Oc5ccc6c(c5)CN(C5CCC(=O)NC5=O)C6=O)C4)ccc3n2)C1 (stereo partly drawn) [drawing 581, 3-(1-oxo-5-{[(3S)-1-({2-[(1s,3s)-3-methoxycyclobutyl]quinolin-6-yl}methyl)pyrrolidin-3-yl]oxy}-2,3-dihydro-1H-isoindol-2-yl)piperidine-2,6-dione] | 23.8 | 5.35 | – | 7.75 | 2.41 |
